In patent publication US20120108811A1, “PROCESS FOR PREPARING TEMOZOLOMIDE” (FORMOSA LABORATORIES INC., priority 2010, published 2012):

Legend:
Format in all cases: physicochemical
[1] = Long-term stability of Temozolomide prepared by conventional method, 2-8° C.; details: for AICA NMT 0.15% / Appearance (White to off-white powder) / Assay (HPLC) (98.0-102.0%) / Individual unknown impurity NMT 0.10% / Purity (HPLC) NLT 99.0% / Total impurities NMT 1.00% / Water content (KF), NMT 1.00%: conventional method, 2-8° C.
Protocol: The Temozolomide was stable at temperature 2-8° C.

[2] = Accelerated stability of Temozolomide prepared by conventional method, 25° C. ± 2° C., 60% ± 5% RH; details: for AICA NMT 0.15% / Appearance (White to off-white powder) / Assay (HPLC) (98.0-102.0%) / Individual unknown impurity NMT 0.10% / Purity (HPLC) NLT 99.0% / Total impurities NMT 1.00% / Water content (KF), NMT 1.00%: conventional method, 25° C. ± 2° C., RH 60% ± 5%
[3] = Long-term stability of Temozolomide prepared by the process of the present invention, 2-8° C.
Protocol: The Temozolomide was stable at temperature 2-8° C. for at least 18 months.

[4] = process of the present invention, 2-8° C., 0 time
[5] = process of the present invention, 2-8° C., 1 month

AICA NMT 0.15% ([1]; 0 time): 0.06%
Appearance (White to off-white powder) ([1]; 0 time): White
Assay (HPLC) (98.0-102.0%) ([1]; 0 time): 101.7%
Individual unknown impurity NMT 0.10% ([1]; 0 time): 0.01%
Purity (HPLC) NLT 99.0% ([1]; 0 time): 99.9%
Total impurities NMT 1.00% ([1]; 0 time): 0.08%
Water content (KF), NMT 1.00% ([1]; 0 time): 0.17%
AICA NMT 0.15% ([1]; 1 month): 0.02%
Appearance (White to off-white powder) ([1]; 1 month): White
Assay (HPLC) (98.0-102.0%) ([1]; 1 month): 101.4%
Individual unknown impurity NMT 0.10% ([1]; 1 month): 0.02%
Purity (HPLC) NLT 99.0% ([1]; 1 month): 100.0%
Total impurities NMT 1.00% ([1]; 1 month): 0.03%
Water content (KF), NMT 1.00% ([1]; 1 month): 0.36%
AICA NMT 0.15% ([1]; 2 months): 0.04%
Appearance (White to off-white powder) ([1]; 2 months): White
Assay (HPLC) (98.0-102.0%) ([1]; 2 months): 99.8%
Individual unknown impurity NMT 0.10% ([1]; 2 months): 0.01%
Purity (HPLC) NLT 99.0% ([1]; 2 months): 99.9%
Total impurities NMT 1.00% ([1]; 2 months): 0.06%
Water content (KF), NMT 1.00% ([1]; 2 months): 0.20%
AICA NMT 0.15% ([1]; 3 months): 0.01%
Appearance (White to off-white powder) ([1]; 3 months): Light beige
Assay (HPLC) (98.0-102.0%) ([1]; 3 months): 99.6%
Individual unknown impurity NMT 0.10% ([1]; 3 months): 0.01%
Purity (HPLC) NLT 99.0% ([1]; 3 months): 100.0%
Total impurities NMT 1.00% ([1]; 3 months): 0.03%
Water content (KF), NMT 1.00% ([1]; 3 months): 0.14%
AICA NMT 0.15% ([1]; 6 months): 0.01%
Appearance (White to off-white powder) ([1]; 6 months): Light beige
Assay (HPLC) (98.0-102.0%) ([1]; 6 months): 99.7%
Individual unknown impurity NMT 0.10% ([1]; 6 months): 0.01%
Purity (HPLC) NLT 99.0% ([1]; 6 months): 99.9%
Total impurities NMT 1.00% ([1]; 6 months): 0.05%
Water content (KF), NMT 1.00% ([1]; 6 months): 0.34%
AICA NMT 0.15% ([1]; 9 months): 0.04%
Appearance (White to off-white powder) ([1]; 9 months): Light beige
Assay (HPLC) (98.0-102.0%) ([1]; 9 months): 98.5%
Individual unknown impurity NMT 0.10% ([1]; 9 months): 0.01%
Purity (HPLC) NLT 99.0% ([1]; 9 months): 99.9%
Total impurities NMT 1.00% ([1]; 9 months): 0.05%
Water content (KF), NMT 1.00% ([1]; 9 months): 0.21%
AICA NMT 0.15% ([1]; 12 months): 0.06%
Appearance (White to off-white powder) ([1]; 12 months): Light beige
Assay (HPLC) (98.0-102.0%) ([1]; 12 months): 99.2%
Individual unknown impurity NMT 0.10% ([1]; 12 months): 0.02%
Purity (HPLC) NLT 99.0% ([1]; 12 months): 99.8%
Total impurities NMT 1.00% ([1]; 12 months): 0.09%
Water content (KF), NMT 1.00% ([1]; 12 months): 0.11%
Long-term stability (in words) ([1]; prepared by conventional method, temperature 2-8° C.): stable
AICA NMT 0.15% ([2]; 0 time): 0.06%
Appearance (White to off-white powder) ([2]; 0 time): White
Assay (HPLC) (98.0-102.0%) ([2]; 0 time): 101.7%
Individual unknown impurity NMT 0.10% ([2]; 0 time): 0.01%
Purity (HPLC) NLT 99.0% ([2]; 0 time): 99.9%
Total impurities NMT 1.00% ([2]; 0 time): 0.08%
Water content (KF), NMT 1.00% ([2]; 0 time): 0.17%
AICA NMT 0.15% ([2]; 1 month): 0.24%
Appearance (White to off-white powder) ([2]; 1 month): Off-white
Assay (HPLC) (98.0-102.0%) ([2]; 1 month): 101.7%
Individual unknown impurity NMT 0.10% ([2]; 1 month): 0.01%
Purity (HPLC) NLT 99.0% ([2]; 1 month): 99.8%
Total impurities NMT 1.00% ([2]; 1 month): 0.25%
Water content (KF), NMT 1.00% ([2]; 1 month): 0.25%
AICA NMT 0.15% ([2]; 2 months): 0.64%
Appearance (White to off-white powder) ([2]; 2 months): Off-white
Assay (HPLC) (98.0-102.0%) ([2]; 2 months): 99.4%
Individual unknown impurity NMT 0.10% ([2]; 2 months): 0.01%
Purity (HPLC) NLT 99.0% ([2]; 2 months): 99.3%
Total impurities NMT 1.00% ([2]; 2 months): 0.67%
Water content (KF), NMT 1.00% ([2]; 2 months): 0.24%
Time stable ([3]; prepared by the process of the present invention, temperature 2-8° C.): at least 18 months
AICA NMT 0.15% [3, 4]: 0.01%
Appearance (White to off-white powder) [3, 4]: White
Assay (HPLC) (98.0-102.0%) [3, 4]: 99.7%
Purity (HPLC) NLT 99.0% [3, 4]: 100.0%
Total impurities NMT 1.00% [3, 4]: 0.01%
Water content (KF), NMT 1.00% [3, 4]: 0.09%
AICA NMT 0.15% [3, 5]: 0.01%
Appearance (White to off-white powder) [3, 5]: White
Assay (HPLC) (98.0-102.0%) [3, 5]: 98.6%
Purity (HPLC) NLT 99.0% [3, 5]: 100.0%
Total impurities NMT 1.00% [3, 5]: 0.01%
SMILES: Cn1nnc2c(C(N)=O)ncn2c1=O [Temozolomide, 8-carbamoyl-3-methyl-imidazo[5,1-d]-1,2,3,5-tetrazin-4(3H)-one]
Stability (in words) ([2]; prepared by conventional method, temperature 25 degree ° C.): easily to degrade to out of specification
